Data published in ChEMBL document CHEMBL1201862, “PubChem BioAssay data set” (2004).
Activity calls are given as the source filed them.

What was measured:
[1] = NIH/3T3 fibroblast cytotoxicity, dose response, cytotoxicity control for T. cruzi growth inhibitor project, cell-based, cherry-pick samples, set 2 (AID 651817); type: functional; settings: NIH3T3
[2] = cells; type: functional, cell-based
[3] = cells; type: functional, cell-based; remark: listed apart in the source
[4] = target: T1, Beta-lactamase (Pseudomonas aeruginosa, UniProt Q79MP6); experiment: […] counterscreen for selective VIM-2 inhibitors: dose response biochemical high throughput screening assay to identify inhibitors of IMP-1 metallo-beta-lactamase.
[5] = target: Beta-lactamase (Salmonella choleraesuis (strain SC-B67), UniProt Q5J463); experiment: Epi-absorbance-based counterscreen for selective VIM-2 inhibitors: dose response biochemical high throughput screening assay to identify inhibitors of TEM-1 serine-beta-lactamase.
[6] = target: T1, Beta-lactamase; experiment: IMP-1 metallo-beta-lactamase inhibitors, dose response, selectivity assay for VIM-2 inhibitor project, biochemical, epi-absorbance (AID 1920)
[7] = cells; type: functional, cell-based; settings: HEK-CNG
[8] = target: Galanin receptor type 3 (Homo sapiens, UniProt O60755); experiment: Fluorescence-based cell-based primary high throughput dose response assay to identify antagonists of the Galanin Receptor 3 (GalR3).; type: functional
[9] = target: Peroxisome proliferator-activated receptor gamma/Nuclear receptor coactivator 3 (Homo sapiens, UniProt P37231); experiment: (§1) TR-FRET dose response biochemical High Throughput Screening assay for agonists of the steroid receptor coactivator 3 (SRC-3) recruitment by the peroxisome proliferator-activated receptor gamma (PPAR gamma): non-selective agonists. [Related pubchem assays: 1301 (Confirmation screen.), 1048 (Primary screen.)]; type: functional
[10] = target: Peroxisome proliferator-activated receptor gamma/Nuclear receptor coactivator 1 (Homo sapiens, UniProt P37231); experiment: as §1, with “1 (SRC-1)” for “3 (SRC-3)”, “assays (depositor defined):AID1300, AID1808, AID504735, AID631]” for “assays: 1301 (Confirmation screen.), 1048 (Primary screen.)]”; type: protein assay
[11] = target: Peroxisome proliferator-activated receptor gamma/Nuclear receptor coactivator 2 (Homo sapiens, UniProt P37231); experiment: TR-FRET dose response biochemical High Throughput Screening assay for agonists of the steroid receptor coactivator 2 (SRC-2) recruitment by the peroxisome proliferator-activated receptor gamma (PPAR gamma): non-selective agonists. [Related pubchem assays: 1297, 1032 ]; type: functional
[12] = target: Beta-galactosidase (Escherichia coli, UniProt Q8VNN2); experiment: Dose response counterscreen for EBI2 assay utilizing the enzyme, b-galactosidase.; type: functional
[13] = T. cruzi growth inhibition in host cells, dose response, cell-based, plate reader, dry powder, set 2 (AID 652275); type: functional
[14] = human group III sPLA2 inhibitors, dose response, biochemical, QFRET, IC50 (AID 743457);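 further: green fluorescence rise as the enzyme cleaves BODIPY PC-A2 in liposomes; potency for inhibition of the enzyme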
[15] = target: Nonstructural protein 1 (Influenza A virus, UniProt Q194T2); type: functional, Influenza A virus (A/California/07/2009(H1N1))
[16] = target: Histone-lysine N-methyltransferase NSD2 (Homo sapiens, UniProt O96028); type: biochemical

T1 sequence (Q79MP6 whole entry): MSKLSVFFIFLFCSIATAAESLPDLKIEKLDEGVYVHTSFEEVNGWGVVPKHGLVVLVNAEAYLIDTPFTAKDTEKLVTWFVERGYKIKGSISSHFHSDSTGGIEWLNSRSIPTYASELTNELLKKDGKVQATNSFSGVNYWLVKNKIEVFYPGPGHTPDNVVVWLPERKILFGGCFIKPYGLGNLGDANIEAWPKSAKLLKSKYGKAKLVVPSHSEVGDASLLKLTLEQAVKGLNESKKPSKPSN
Sequence of Peroxisome proliferator-activated receptor gamma/Nuclear receptor coactivator 2 (P37231 whole entry): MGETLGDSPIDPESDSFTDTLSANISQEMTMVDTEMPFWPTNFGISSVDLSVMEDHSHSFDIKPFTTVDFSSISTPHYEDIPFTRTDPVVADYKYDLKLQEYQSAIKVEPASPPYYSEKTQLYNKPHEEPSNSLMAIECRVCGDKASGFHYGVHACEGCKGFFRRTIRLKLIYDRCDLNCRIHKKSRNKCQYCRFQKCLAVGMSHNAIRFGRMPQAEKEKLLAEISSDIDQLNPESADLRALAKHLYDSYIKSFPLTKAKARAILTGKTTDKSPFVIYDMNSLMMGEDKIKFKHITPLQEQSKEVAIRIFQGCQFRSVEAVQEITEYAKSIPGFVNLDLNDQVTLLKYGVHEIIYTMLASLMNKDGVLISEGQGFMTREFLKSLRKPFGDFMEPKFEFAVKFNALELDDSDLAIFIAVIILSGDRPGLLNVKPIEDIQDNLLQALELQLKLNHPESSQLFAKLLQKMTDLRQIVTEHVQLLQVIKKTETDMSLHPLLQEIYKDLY
Sequence of Peroxisome proliferator-activated receptor gamma/Nuclear receptor coactivator 2 (Q15596 whole entry, further chain): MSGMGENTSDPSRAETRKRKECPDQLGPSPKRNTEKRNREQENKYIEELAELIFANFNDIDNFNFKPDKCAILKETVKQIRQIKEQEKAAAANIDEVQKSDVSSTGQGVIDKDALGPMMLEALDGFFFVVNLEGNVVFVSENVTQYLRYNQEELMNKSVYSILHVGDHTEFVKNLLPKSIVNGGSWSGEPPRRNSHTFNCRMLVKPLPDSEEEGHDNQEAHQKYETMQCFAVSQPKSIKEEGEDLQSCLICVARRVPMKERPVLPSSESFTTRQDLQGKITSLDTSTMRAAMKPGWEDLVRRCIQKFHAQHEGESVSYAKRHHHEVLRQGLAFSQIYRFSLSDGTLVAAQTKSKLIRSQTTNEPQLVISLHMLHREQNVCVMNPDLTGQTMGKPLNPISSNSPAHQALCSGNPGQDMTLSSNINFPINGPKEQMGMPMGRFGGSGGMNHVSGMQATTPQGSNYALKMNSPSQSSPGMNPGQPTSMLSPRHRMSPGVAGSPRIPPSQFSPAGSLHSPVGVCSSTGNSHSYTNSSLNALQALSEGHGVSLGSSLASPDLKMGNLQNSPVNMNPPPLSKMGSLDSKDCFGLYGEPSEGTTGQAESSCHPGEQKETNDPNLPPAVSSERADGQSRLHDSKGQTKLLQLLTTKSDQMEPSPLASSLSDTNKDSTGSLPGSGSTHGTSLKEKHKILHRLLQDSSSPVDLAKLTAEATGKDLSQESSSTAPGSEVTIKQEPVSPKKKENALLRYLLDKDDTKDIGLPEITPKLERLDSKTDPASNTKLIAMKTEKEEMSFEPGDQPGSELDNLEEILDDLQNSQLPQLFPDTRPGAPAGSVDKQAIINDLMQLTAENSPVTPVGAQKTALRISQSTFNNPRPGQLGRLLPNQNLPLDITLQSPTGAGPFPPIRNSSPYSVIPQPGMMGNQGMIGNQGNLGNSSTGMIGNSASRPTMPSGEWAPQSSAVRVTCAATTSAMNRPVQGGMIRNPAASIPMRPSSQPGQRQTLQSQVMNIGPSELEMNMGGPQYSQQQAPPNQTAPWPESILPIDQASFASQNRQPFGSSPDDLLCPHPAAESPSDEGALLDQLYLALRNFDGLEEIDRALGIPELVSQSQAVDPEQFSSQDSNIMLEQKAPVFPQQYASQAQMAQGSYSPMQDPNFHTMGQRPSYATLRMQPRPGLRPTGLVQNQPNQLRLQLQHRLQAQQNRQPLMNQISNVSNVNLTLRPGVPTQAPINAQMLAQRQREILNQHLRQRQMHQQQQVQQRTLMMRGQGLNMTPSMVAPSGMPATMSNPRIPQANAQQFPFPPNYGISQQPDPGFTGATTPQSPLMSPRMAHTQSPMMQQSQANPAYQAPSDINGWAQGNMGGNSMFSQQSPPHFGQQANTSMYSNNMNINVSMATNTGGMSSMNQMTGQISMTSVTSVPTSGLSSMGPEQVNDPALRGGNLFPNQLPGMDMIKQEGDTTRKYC
Sequence of Peroxisome proliferator-activated receptor gamma/Nuclear receptor coactivator 3 (P37231 whole entry): as the sequence (P37231 whole entry) above
Sequence of Peroxisome proliferator-activated receptor gamma/Nuclear receptor coactivator 3 (Q9Y6Q9 whole entry, further chain): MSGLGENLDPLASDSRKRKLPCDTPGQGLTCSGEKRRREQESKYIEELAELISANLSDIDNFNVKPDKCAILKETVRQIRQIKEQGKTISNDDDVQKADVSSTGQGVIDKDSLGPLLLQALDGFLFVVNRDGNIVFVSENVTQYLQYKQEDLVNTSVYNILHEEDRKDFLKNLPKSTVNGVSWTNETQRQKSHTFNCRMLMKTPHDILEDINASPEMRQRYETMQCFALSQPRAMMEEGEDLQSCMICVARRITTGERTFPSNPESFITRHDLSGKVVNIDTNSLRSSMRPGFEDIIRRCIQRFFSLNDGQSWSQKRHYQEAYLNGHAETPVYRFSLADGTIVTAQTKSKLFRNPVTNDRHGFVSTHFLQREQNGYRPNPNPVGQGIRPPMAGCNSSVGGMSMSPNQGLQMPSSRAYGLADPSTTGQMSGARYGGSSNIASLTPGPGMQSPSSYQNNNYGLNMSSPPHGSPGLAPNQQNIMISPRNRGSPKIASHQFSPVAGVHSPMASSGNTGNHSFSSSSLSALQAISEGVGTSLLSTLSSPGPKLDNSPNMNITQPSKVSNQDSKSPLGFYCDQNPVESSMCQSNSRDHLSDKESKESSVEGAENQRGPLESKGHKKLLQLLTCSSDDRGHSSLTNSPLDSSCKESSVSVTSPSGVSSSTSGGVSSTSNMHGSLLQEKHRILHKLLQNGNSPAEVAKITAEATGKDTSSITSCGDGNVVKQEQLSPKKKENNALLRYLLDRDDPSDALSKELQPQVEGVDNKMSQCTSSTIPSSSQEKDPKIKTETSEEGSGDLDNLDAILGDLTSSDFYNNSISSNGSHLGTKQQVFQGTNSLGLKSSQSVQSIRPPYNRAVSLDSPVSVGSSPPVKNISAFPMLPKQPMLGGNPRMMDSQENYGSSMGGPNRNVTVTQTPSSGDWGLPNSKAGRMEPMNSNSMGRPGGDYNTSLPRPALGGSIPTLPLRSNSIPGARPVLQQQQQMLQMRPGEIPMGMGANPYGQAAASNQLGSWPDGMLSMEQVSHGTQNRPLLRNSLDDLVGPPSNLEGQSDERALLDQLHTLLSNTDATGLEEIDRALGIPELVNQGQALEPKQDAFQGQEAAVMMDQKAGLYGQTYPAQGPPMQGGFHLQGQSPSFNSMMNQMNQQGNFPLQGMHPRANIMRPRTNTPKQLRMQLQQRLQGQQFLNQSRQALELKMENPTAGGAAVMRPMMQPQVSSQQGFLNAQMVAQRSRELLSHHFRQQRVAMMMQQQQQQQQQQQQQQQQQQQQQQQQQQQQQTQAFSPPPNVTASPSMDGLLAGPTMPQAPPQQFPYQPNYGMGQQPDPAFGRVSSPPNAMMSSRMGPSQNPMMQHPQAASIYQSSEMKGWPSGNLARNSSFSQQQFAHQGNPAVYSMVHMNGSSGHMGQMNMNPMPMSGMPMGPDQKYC
Sequence of Galanin receptor type 3 (O60755 whole entry): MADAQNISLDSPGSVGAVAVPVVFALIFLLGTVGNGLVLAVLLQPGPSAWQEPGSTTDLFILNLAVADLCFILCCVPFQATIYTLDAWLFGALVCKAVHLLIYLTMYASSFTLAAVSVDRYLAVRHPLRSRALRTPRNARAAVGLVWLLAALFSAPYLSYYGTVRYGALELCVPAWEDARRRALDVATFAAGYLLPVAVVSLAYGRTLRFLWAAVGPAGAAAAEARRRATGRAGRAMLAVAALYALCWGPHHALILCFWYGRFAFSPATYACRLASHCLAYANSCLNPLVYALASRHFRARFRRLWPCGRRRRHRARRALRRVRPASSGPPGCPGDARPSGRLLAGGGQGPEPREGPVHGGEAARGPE
Sequence of Beta-lactamase (Salmonella choleraesuis (strain SC-B67), UniProt Q5J463) (Q5J463 whole entry): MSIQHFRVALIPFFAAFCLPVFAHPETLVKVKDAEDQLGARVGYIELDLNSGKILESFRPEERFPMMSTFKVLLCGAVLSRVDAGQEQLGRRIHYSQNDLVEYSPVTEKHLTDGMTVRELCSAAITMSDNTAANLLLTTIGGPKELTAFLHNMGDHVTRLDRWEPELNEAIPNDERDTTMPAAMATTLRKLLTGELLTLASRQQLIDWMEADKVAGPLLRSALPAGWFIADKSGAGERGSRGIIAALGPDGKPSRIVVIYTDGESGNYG
Sequence of Nonstructural protein 1 (Q194T2 whole entry): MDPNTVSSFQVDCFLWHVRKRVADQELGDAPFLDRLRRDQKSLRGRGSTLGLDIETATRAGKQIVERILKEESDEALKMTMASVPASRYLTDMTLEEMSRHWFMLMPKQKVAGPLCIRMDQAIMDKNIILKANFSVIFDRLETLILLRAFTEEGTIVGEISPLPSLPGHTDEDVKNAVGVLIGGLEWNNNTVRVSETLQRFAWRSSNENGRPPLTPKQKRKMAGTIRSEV

C[C@@H]1CN([C@@H](C)CO)C(=O)c2cccc(NC(=O)c3ccncc3)c2O[C@@H]1CN(C)Cc1ccccc1
AC50 [1]: 39 µM (inactive)

O=C(Nc1ccccc1)Nc1nncs1
IC50 [2]: > 29.9 µM (inactive) | EC50 [3]: > 29.9 µM (inactive)

Cc1cc(C(=O)OCC(=O)NC(=O)c2cccn2C)c2ccccc2n1
IC50 [4]: > 59.6 µM (inactive) | IC50 [5]: > 59.6 µM (inactive) | IC50 [6]: > 59.6 µM (inactive)

COc1ccc(CN2CCC(C(=O)Nc3ccc(Oc4ccccc4)nc3)CC2)cc1F
EC50 [7]: > 29.9 µM (inactive) | IC50 [8]: 3.56 µM (active)

CNC(=S)N1N=C(c2ccc(Br)cc2)CC1c1ccc(OC)cc1 (configuration not stated)
EC50 [9]: 49.9 µM (not active) | EC50 [10]: 14.5 µM (inactive) | EC50 [11]: 17.3 µM (not active) | IC50 [12]: > 80 µM (inactive)

C[C@H]1CN([C@@H](C)CO)C(=O)c2cccc(NC(=O)c3nc4ccccc4s3)c2O[C@@H]1CN(C)Cc1ccc2c(c1)OCO2
AC50 [1]: 9.31 µM (active)

CC(C)N1C[C@@H](CN(C)Cc2ccc(Cl)cc2)Oc2c(NC(=O)c3ccncc3)cccc2C1=O
AC50 [13]: 0.0045 µM (active)

Cc1ccc(N2CCOCC2)c2c1C(=O)c1ccccc1C2=O
IC50 [14]: > 122 µM (inactive) | IC50 [15]: 14.5 µM (active) | AC50 [16]: 10.5 µM (active)
